Source: PubChem BioAssay AID602214 (Southern Research Specialized Biocontainment Screening …, 2012)
Calls of active or inactive are those of the source.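 How the source made its calls: active means inhibition of 30% or more at any tested concentration; inactive means the rest.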

target: Cytosol aminopeptidase (Homo sapiens) (UniProt P28838); test: human M17LAP inhibitors, dose response, counter-screen for PfM17LAP inhibitor project, biochemical, QFRET fluorogenic substrate (AID 602214); conditions: purified recombinant human M17LAP, H-Leu-NHMec fluorescence
Sequence (P28838 whole entry, looked up): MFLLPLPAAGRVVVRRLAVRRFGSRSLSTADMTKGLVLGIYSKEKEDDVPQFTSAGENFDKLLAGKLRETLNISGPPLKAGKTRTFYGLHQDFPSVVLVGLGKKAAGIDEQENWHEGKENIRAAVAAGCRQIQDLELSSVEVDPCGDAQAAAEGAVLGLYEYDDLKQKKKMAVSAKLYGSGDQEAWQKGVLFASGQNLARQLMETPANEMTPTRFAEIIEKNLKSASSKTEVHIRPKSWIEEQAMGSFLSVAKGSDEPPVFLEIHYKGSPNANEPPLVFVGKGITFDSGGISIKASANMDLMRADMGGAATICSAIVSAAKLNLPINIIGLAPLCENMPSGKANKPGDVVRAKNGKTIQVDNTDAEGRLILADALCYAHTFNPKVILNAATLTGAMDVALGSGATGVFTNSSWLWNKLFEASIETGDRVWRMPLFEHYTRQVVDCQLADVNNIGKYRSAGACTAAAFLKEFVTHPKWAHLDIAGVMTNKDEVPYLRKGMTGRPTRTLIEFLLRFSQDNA

| Compound | IC50 |
| --- | --- |
| CCCCc1ccc(CC(=O)NO)cc1 | 0.35 µM |
| CCCCOc1ccc(CC(=O)NO)cc1 | 0.31 µM |
| CCCCOc1ccc(CCC(=O)NO)cc1 | 16.2 µM |
| COc1ccc(CCCC(=O)NO)cc1 | 4.58 µM |
| COC(=O)c1c(NC(=O)C2CC=CCC2C(=O)O)sc(C)c1-c1ccc(C)cc1 (centres undefined) | 85.7 µM |
| COc1ccc(OCCC(=O)NO)cc1 | 44.2 µM |
| Cc1ccc(CC(=O)NO)cc1 | 1.82 µM |
| CC(C)COc1ccc(CC(=O)NO)cc1 | 0.21 µM |
| O=C(Cc1ccc2c(c1)CCCC2)NO | 0.28 µM |
| CCCCCCCCCC(=O)NO | 8.23 µM |
| CCOc1ccc(CC(=O)NO)cc1 | 1.11 µM |
| COc1ccc(CC(=O)NO)cc1 | 1.64 µM |
| CCCCOc1ccc(C(=O)NO)cc1 | 8.67 µM |

Other lines, results leading:

| IC50 | Compound |
| --- | --- |
| 31.9 µM | O=C(NO)c1cccc2ccccc12 |
| 1.18 µM | O=C(Cc1ccc(OCc2ccccc2)cc1)NO |
| 0.99 µM | O=C(Cc1cccc2ccccc12)NO |
| 0.29 µM | O=C(Cc1ccc2ccccc2c1)NO |
| 0.52 µM | O=C(Cc1ccc(Oc2ccccc2)cc1)NO |

same assay, conditions: purified recombinant human M17LAP, H-Leu-NHMec fluorescence; at 25 µM (top of the series)

| inhibition | Compound |
| --- | --- |
| inactive | CCCCOc1ccc(CNc2c(N(C)O)c(=O)c2=O)cc1 |

same assay, conditions: purified recombinant human M17LAP, H-Leu-NHMec fluorescence; at 50 µM (top of the series)

| Compound | inhibition |
| --- | --- |
| CCCCOc1ccc(CC(=O)N(C)O)cc1 | inactive |
| O=C1OCCC1Sc1nnc(NC2CCCCC2)s1 (centres undefined) | inactive |

The remaining lines, values ahead:

| inhibition | Compound |
| --- | --- |
| inactive | COC(=O)c1ccccc1NC(=O)c1cc2cc3ccc(C)cc3nc2s1 |
| inactive | O=C(CSc1nccc(=O)[nH]1)Nc1ccc(Oc2ccccc2)cc1 |
| inactive | COC(=O)c1ccccc1NC(=O)c1ccc2c(Cl)c3c(nc2c1)CCC3 |

same assay, conditions: purified recombinant human M17LAP, H-Leu-NHMec fluorescence; at 100 µM (top of the series)

| Compound | inhibition |
| --- | --- |
| CCC(C)(C)C1CCc2c(sc(NC(=O)C3CC(C)=C(C)CC3C(=O)O)c2C(=O)OC)C1 (centres undefined) | inactive |
| CC1=C(C)CC(C(=O)Nc2nc(-c3cc(C)ccc3C)c(C)s2)C(C(=O)O)C1 (centres undefined) | inactive |
| COC(=O)c1c(NC(=O)C2CCCCC2C(=O)O)sc2c1CCC(c1ccccc1)C2 (centres undefined) | inactive |
| CCC(C)Oc1ccc(CC(=O)OC)cc1 (centres undefined) | inactive |
| NC(N)=NCCC[C@H](N)C(=O)NO | inactive |
| COC(=O)c1c(NC(=O)c2ccccc2C(=O)O)sc2c1CCCC2 | inactive |
| CC1CCc2sc(C(=O)Nc3cccc4c3C(=O)NC4)cc2C1 (centres undefined) | inactive |
| CC(C)C[C@H](N)C(=O)NO | inactive |
| CC1=C(C)CC(C(=O)Nc2ccc(Oc3ccc(Cl)cc3)cc2)C(C(=O)O)C1 (centres undefined) | inactive |
| COC(=O)Cc1ccc(OCCN(C)C)cc1 | inactive |
| COC(=O)c1cc(OC)c(OC)cc1NC(=O)c1sc2nc(C)ccc2c1N | inactive |
| CCCCOc1ccc(CC(=O)O)cc1 | inactive |
| CCCOc1ccc(CC(=O)OC)cc1 | inactive |
| COc1ccc(-c2nnc(NC(=O)C3CC(C)=C(C)CC3C(=O)O)s2)cc1 (centres undefined) | inactive |
| COC(=O)Cc1ccc(OCC(C)C)cc1 | inactive |
| CCCCOc1ccc(CNc2c(N(O)Cc3ccccc3)c(=O)c2=O)cc1 | inactive |

Other lines, results leading:

| inhibition | Compound |
| --- | --- |
| inactive | O=C(O)c1ccccc1C(=O)Nc1nc2c(s1)CCCC2 |
| inactive | CCn1c2ccccc2c2cc(NC(=O)CSc3nc(C)cc(=O)[nH]3)ccc21 |
| inactive | O=C(CSc1nc(O)cc(=O)[nH]1)Nc1ccccc1 |
| inactive | Cc1ccc(NC(=O)CSc2nc(O)cc(=O)n2Cc2ccccc2)cc1 |
| inactive | N[C@@H](Cc1c[nH]c2ccccc12)C(=O)NO |
| inactive | O=C(CSc1ccccc1)Nc1cccc2c1C(=O)NC2=O |
| inactive | Cc1cc(SCC(=O)Nc2ccccc2C(=O)O)nc2ccccc12 |
| inactive | COc1cc(NC(=O)CSc2ccccc2)c(C(=O)O)cc1OC |
| inactive | O=C(CSc1nccc(=O)[nH]1)Nc1ccc(N2CCOCC2)cc1 |
| inactive | CN(O)C(=O)Cc1ccc(OCc2ccccc2)cc1 |
| inactive | COc1cc(NC(=O)c2ccc(-c3ccccc3)cc2)c(C(=O)O)cc1OC |
| inactive | CC(C)(C(=O)NO)c1ccccc1 |
| inactive | O=C(Nc1ccc(Cl)cc1)Nc1ccccc1C(=O)O |
| inactive | Cc1cc(=O)[nH]c(SCC(=O)Nc2ccccc2)n1 |
